Assay results from patent US20150320705A1, “METHOD OF INHIBITING OR TREATING AMYOTROPHIC LATERAL SCLEROSIS WITH PHENOXYALKYLCARBOXYLIC ACIDS” (priority 2014, published 2015).

Experiments:
[1] = test system: VAPB Drosophila mutants; experiment: Evaluation of anti-ALS activity on VAPB Drosophila mutants (viability); type: in vivo; conditions: VAPB mutant flies; for adult flies observed from seeded larvae: 3 replicates for riluzole and vitamin D (45 larvae seeded), 8 for MN-001 (120 larvae seeded)
[2] = test system: SOD deficient flies; type: in vivo, Drosophila; conditions: flies with interfered SOD gene, MN-001 tested at 0.08 mM, 0.8 mM, 8 mM (DMSO), FIG. 3
Method: Drosophila males will be collected and keep on fly food for 24 h. Then flies will be transferred to vials containing 3-mm paper filter disks saturated with 250 μl of 1% sucrose containing 2 mM paraquat or 1% sucrose, 2 mM paraquat and the tested compound. The vials will be stored at 25° C. in the dark, and flies are enumerated after 24 h.
Three replicas for each concentration will be performed in the same day and three replicas of the assay will be performed in different days.
The experiment includes the analysis of four compound concentrations (10, 100, 250 and 1000 μM) and will evaluate 360 flies for each concentration (8 replicates×3 days with 15 flies each one). Resistance to paraquat treatment will be indicative of positive activity of the compound tested. See, FIG. 2.
MN-001 was tested at concentrations of 0.08 mM, 0.8 mM, 8 mM (DMSO).

Row | Compound | adult flies observed from seeded larvae [1] | survival (or survivorship) percentages after paraquat exposure [2] | viability ([1]; compared with DMSO)
1 | Nc1nc2ccc(OC(F)(F)F)cc2s1 [riluzole] | No adult flies were observed |  | 
2 | vitamin E |  | increased this percentage | 
3 | CCCc1c(SCCCOc2ccc(C(C)=O)c(OCCCC(=O)O)c2CCC)ccc(C(C)=O)c1O [MN-001] | 5 of 8 wells displayed adults but only 1 adult in each of them | increased this survival in a dose dependent manner | increase viability in a statistically significant manner
4 | vitamin D | 1 adult was observed in one of the 3 replicates |  | 
